# Where “and” joins values, the source holds several entries; their conditions need not be identical. Identical values can stand only once. Like-named read-outs stand apart in the source and are kept apart here.
# Columns and labels:
# [1] = molecular target: SMARCA2 (Homo sapiens, UniProt P51531); experiment: SMARCA2 IHC in NCI-H1568 xenograft tumours; format: in vivo, mouse; design: from tissue; host or cells: subcutaneous NCI-H1568 or A549 xenograft tumours in BomTac:NMRI-Foxn1nu mice; conditions: individual tumours; for SMARCA2 (OD, normalised): background OD 0.03518 subtracted
# Protocol: To establish subcutaneous tumours, mice were injected with 5 × 10^6 NCI-H1568 in PBS with 5% FCS or with 1 × 10^7 A549 cells in PBS with 5% FCS. Tumour diameters were measured with a caliper three times a week. The volume of each tumour (in mm^3) was calculated according to the formula [tumour volume = length × diameter^2 × π/6]. To monitor side effects of treatment, mice were inspected daily for abnormalities and body weight was determined daily after the start of treatment. Animals were sacrificed when the tumours reached a size of 1500 mm^3. Mice were randomised into treatment groups when the average tumour size reached ~210–220 mm^3. Group sizes were calculated individually for each tumour model based on tumour growth during model establishment experiments. A power analysis was performed using a sample size calculator (https://www.stat.ubc.ca/~rollin/stats/ssize/n2.html). For both models used in the study, 10 mice per group were used for each experiment. All administrations were dosed with 10 ml/kg (s.c. and oral). Control mice were dosed subcutaneously with 10% HP-β-CD in 50% Ringer solution and orally with 15% HP-β-CD, that means the control mouse treatment was corresponding to the solvent of the compounds. Compound 6 was dosed subcutaneously either in a d1-4 q3d, d6-8 q2d, d11-13 q2d treatment (Treatment 1) or a q3 or 4d treatment (Treatment 2).
# Xenograft samples were fixed in 10% formaldehyde for 24 h and later moved to ethanol and embedded in paraffin. 2 µm-thick sections were cut using a microtome, then placed on glass slides ([…], silan printer slides PR-S:001), and subsequently dewaxed. SMARCA2 immunohistochemistry was carried out on the Leica BOND RX platform (Leica Biosystems) according to manufacturer’s instructions using a human-specific SMARCA2 antibody (Cell Signalling #11966 clone D9E8B RRID:AB_2797783 1:400) where the tissue underwent a heat-induced epitope retrieval for 20 min. After staining, the slides were cover-slipped with Shandon Consul-Mount glass covers, scanned using a slide scanner (3D HISTECH Ltd.). All slides were reviewed and evaluated for quality by a board-certified MD specialist in Anatomic Pathology (PC). Imaging analysis was performed using the digital pathology platform HALO (Indica Labs). A tissue-classifying algorithm was trained to selectively recognise viable tumour tissue against stroma, necrosis, and skin. The tissue classification output for each scan was reviewed and manually edited as necessary. A cell detection and scoring algorithm was trained to measure DAB optical density (OD) in the nuclei of tumour cells. A positivity threshold for DAB OD was determined by normalisation with respect to the DAB OD as calculated from bona fide negative tissue (e.g. murine stroma as background). The average, background-normalised DAB OD of tumour cell nuclei was used to quantitate SMARCA2 expression in each xenograft sample.
# [2] = Pharmacokinetic analyses in mouse; format: in vivo; conditions: for AUC(0-t): read-out: AUC0-24h; for AUC(0-inf): read-out: AUC0-inf
# Protocol: Compound concentrations in plasma aliquots were measured by quantitative HPLC-MS/MS using an internal standard. Calibration and quality control samples were prepared using blank plasma from untreated animals. Samples were precipitated with acetonitrile and injected into a HPLC system (Agilent 1200). Separation was performed by gradients of 5 mmol/L ammonium acetate pH 4.0 and acetonitrile with 0.1% formic acid on a 2.1 mm by 50 mm XBridge BEH C18 reversed-phase column with 2.5 µm particles (Waters). The HPLC was interfaced by ESI operated in positive ionisation mode to a triple quadrupole mass spectrometer (5000 or 6500+ Triple Quad System, SCIEX) operated in multiple reaction monitoring mode. Transitions were 532.4 to 432.8 m/z for BI01810284, 525.6 to 425.7 m/z for BI01802983 and 1021.6 to 624.2 m/z for BI01580883. Chromatograms were analyzed with Analyst (SCIEX) and pharmacokinetic parameters were calculated by non-compartmental analysis using BI-proprietary software.
# [3] = 5 mg/kg i.v., individual animals
# [4] = 30 mg/kg p.o., individual animals
# [5] = NMRI, mouse, plasma, iv, 5 mg/kg, NMRI mice, i.v., 5 mg/kg, PK study
# [6] = NMRI, mouse, plasma, po, 30 mg/kg, NMRI mice, p.o., 30 mg/kg, PK study
# [7] = mouse, 5 mg/kg i.v., NCA, individual animals, 5 mg/kg
# Sequence of SMARCA2 (P51531 whole entry): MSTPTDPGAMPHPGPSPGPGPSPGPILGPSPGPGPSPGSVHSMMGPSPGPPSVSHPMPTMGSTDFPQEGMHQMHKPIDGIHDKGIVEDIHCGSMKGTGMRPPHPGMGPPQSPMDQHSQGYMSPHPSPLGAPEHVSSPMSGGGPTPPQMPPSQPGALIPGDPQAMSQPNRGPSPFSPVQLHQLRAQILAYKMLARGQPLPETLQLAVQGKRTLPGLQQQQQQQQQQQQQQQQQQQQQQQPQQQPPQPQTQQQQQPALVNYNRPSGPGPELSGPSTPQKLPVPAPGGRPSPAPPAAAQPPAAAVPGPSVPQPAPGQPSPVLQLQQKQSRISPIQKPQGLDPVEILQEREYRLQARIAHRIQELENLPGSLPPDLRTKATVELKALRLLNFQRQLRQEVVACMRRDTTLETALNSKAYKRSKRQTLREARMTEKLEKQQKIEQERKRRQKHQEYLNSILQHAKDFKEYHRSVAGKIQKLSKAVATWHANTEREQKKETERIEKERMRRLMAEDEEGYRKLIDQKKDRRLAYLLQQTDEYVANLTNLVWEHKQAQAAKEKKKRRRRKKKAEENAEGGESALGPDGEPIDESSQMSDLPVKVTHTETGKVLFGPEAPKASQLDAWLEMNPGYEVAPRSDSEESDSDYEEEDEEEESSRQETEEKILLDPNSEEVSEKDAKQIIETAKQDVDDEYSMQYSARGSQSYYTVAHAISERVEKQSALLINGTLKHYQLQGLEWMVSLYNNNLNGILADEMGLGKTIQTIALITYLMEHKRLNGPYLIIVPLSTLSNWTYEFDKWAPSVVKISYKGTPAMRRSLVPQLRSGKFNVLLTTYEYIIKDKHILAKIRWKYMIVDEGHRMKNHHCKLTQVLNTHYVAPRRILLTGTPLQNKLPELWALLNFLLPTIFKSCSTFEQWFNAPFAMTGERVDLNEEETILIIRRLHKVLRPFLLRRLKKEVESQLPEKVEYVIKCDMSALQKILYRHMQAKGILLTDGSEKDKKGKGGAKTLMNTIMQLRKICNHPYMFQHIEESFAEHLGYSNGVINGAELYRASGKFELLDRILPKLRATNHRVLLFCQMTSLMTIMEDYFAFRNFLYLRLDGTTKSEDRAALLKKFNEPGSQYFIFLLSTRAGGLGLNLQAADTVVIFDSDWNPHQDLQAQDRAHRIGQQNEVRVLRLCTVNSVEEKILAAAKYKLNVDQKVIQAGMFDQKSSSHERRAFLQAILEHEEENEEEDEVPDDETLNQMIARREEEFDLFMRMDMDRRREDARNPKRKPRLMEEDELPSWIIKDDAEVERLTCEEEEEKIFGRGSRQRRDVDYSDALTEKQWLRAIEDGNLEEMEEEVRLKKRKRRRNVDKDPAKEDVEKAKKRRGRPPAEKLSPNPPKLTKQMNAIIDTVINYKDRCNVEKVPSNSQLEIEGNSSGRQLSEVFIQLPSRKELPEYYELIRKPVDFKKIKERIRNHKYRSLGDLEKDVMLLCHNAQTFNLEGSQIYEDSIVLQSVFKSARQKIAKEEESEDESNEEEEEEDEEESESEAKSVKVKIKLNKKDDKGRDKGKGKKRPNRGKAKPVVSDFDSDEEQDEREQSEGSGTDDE
smiles,measurement,setting,value
Cc1ncsc1-c1ccc(C(CCC(C)CCN2CCC(c3ccc4c(c3)n(C3CCCC3)c3nc(=O)c5c(Br)cccc5n43)CC2)NC(=O)C2CC(O)CN2C(=O)C(NC(=O)C2(F)CC2)C(C)(C)C)cc1 (centres unmarked) [ACBI2],"SMARCA2 (OD, normalised)","[1]; 5 mg/kg, 48h",0.2432 and 0.2157 and 0.2065 and 0.129 and 0.1815
same,SMARCA2 Nuclear OD,"[1]; 5 mg/kg, 48h",0.2784 and 0.2509 and 0.2416 and 0.1642 and 0.2166
same,"SMARCA2 (OD, normalised)","[1]; 20 mg/kg, 24h",0.05875 and 0.05583 and 0.06456 and 0.06581
same,SMARCA2 Nuclear OD,"[1]; 20 mg/kg, 24h",0.09393 and 0.09101 and 0.09973 and 0.101
same,"SMARCA2 (OD, normalised)","[1]; 20 mg/kg, 48h",0.06607 and 0.09312 and 0.06031 and 0.01981
same,SMARCA2 Nuclear OD,"[1]; 20 mg/kg, 48h",0.1013 and 0.1283 and 0.09549 and 0.05499
same,"SMARCA2 (OD, normalised)","[1]; 100 mg/kg, 48h",0.01021 and 0.00729 and 0.00935 and 0.01389 and 0.01189
same,SMARCA2 Nuclear OD,"[1]; 100 mg/kg, 48h",0.04539 and 0.04246 and 0.04453 and 0.04906 and 0.04706
same,AUC,[2]; [3],41.8 µM·h and 38 µM·h
same,AUCinf,[2]; [3],42.3 µM·h and 38.4 µM·h
same,Concentration,"[2]; 5 mg/kg i.v., time 0.25 h, individual animals",6.8 µM
same,Concentration,"[2]; 5 mg/kg i.v., time 1 h, individual animals",5.13 µM
same,Concentration,"[2]; 5 mg/kg i.v., time 6 h, individual animals",1.22 µM
same,Concentration,"[2]; 5 mg/kg i.v., time 24 h, individual animals",0.0949 µM
same,F,"[2]; 30 mg/kg p.o. vs 5 mg/kg i.v., individual animals",23.8% and 20.9%
same,AUC,[2]; [4],53.9 µM·h and 47.2 µM·h
same,AUCinf,[2]; [4],55 µM·h and 48.3 µM·h
same,MRT,"[2]; NMRI, mouse, plasma, iv, 5 mg/kg, NMRI mice, PK study",3.8 h
same,AUC(0-t),[2]; [5],38 µM·h
same,AUC(0-inf),[2]; [5],38 µM·h
same,clearance,"[2]; NMRI, mouse, plasma, iv, 5 mg/kg, NMRI mice, i.v., 5 mg/kg, PK study, read-out: Clearance",2 mL/min/kg
same,Vd,"[2]; NMRI, mouse, plasma, iv, 5 mg/kg, NMRI mice, i.v., 5 mg/kg, PK study, read-out: Vss",0.47 L/kg
same,MRT,"[2]; NMRI, mouse, plasma, po, 30 mg/kg, NMRI mice, PK study",6.1 h
same,AUC(0-t),[2]; [6],50 µM·h
same,AUC(0-inf),[2]; [6],51 µM·h
same,bioavailability,"[2]; NMRI, mouse, plasma, po, 30 mg/kg, NMRI mice, p.o., 30 mg/kg, PK study, read-out: Bioavailability",22%
same,AUC(0-t),"[2]; NMRI, mouse, plasma, po, 80 mg/kg, NMRI mice, p.o., 80 mg/kg, Xenograft study",84 µM·h
same,Plasma concentration,"[2]; mouse, 5 mg/kg i.v., 0.25 h, individual animals, 5 mg/kg",7.53 µM and 7.36 µM
same,Plasma concentration,"[2]; mouse, 5 mg/kg i.v., 1 h, individual animals, 5 mg/kg",6 µM and 5.66 µM
same,Plasma concentration,"[2]; mouse, 5 mg/kg i.v., 6 h, individual animals, 5 mg/kg",1.62 µM and 1.38 µM
same,Plasma concentration,"[2]; mouse, 5 mg/kg i.v., 24 h, individual animals, 5 mg/kg",0.0855 µM and 0.0743 µM
same,AUC,[2]; [7],41.8 µM·h and 38 µM·h
same,AUCinf,[2]; [7],42.3 µM·h and 38.4 µM·h
same,CL,[2]; [7],1.85 mL/min/kg and 2.04 mL/min/kg
same,Vss,[2]; [7],0.426 L/kg and 0.449 L/kg
same,Plasma concentration,"[2]; mouse, 30 mg/kg p.o., 0.333 h, individual animals, 30 mg/kg",0.968 µM and 1.53 µM
same,Plasma concentration,"[2]; mouse, 30 mg/kg p.o., 1 h, individual animals, 30 mg/kg",4.18 µM and 4.16 µM
same,Plasma concentration,"[2]; mouse, 30 mg/kg p.o., 2 h, individual animals, 30 mg/kg",4.46 µM and 4.88 µM

# Reference: PMC9551036, “A selective and orally bioavailable VHL-recruiting PROTAC achieves SMARCA2 degradation in vivo” (Nature Communications, 2022)
